In BindingDB's records for doi:10.1074/jbc.M114.566729 (University of Colorado School of Medicine, 2014):

Molecular target: T1, Eyes absent homolog 2 [253-538] (Human, UniProt O00167)
T1 construct: 253-538
T1 sequence (O00167 whole entry): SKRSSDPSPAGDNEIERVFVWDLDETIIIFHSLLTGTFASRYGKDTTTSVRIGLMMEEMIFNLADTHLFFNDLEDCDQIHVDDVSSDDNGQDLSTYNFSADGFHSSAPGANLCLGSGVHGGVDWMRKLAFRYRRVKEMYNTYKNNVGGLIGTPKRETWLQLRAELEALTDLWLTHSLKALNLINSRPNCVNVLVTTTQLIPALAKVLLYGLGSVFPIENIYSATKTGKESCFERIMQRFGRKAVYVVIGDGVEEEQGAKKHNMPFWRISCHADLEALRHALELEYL
Assay: Eya Phosphatase Assay
Details: pH 6.5; 25 °C
Procedure: Eya activity was measured in 50-μl reactions using black, 96-well, half-volume microtiter plates (Greiner Bio-one) with the substrate OMFP (3-O-methylfluoresceinphosphate, Sigma-Aldrich), which is converted to a fluorescent product OMF upon dephosphorylation. […] Reactions were started by the addition of OMFP, preceded for 1 h at room temperature followed by terminating the reaction with the addition of 75mMEDTA.

IC50: 2900 nM
Structure (SMILES): O=C(N/N=C/c1ccc(Sc2ccccn2)s1)c1cccc(F)c1 [NCGC00249327]
